34 compounds from patent US10562891B2, “Quinazolinones as PARP14 inhibitors” (Ribon Therapeutics Inc., priority 2017, dated 2020) can be followed below.

Structures are written as SMILES. Counter-ions that a name gives are not always drawn.

Chain of catalytic domain of human PARP14 (Q460N5 1611-1801): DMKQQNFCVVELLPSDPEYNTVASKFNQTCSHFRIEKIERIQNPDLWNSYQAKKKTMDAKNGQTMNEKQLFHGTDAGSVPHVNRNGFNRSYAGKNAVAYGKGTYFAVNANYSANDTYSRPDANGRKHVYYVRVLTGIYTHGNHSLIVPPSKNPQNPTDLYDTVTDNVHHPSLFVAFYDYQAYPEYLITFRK

In this assay the target is catalytic domain of human PARP14 (Homo sapiens (Human), UniProt Q460N5). The assay can be described thus: Enzymatic assay for inhibition of PARP14 (DELFIA, auto-modification with biotin-NAD). The class given is biochemical. The settings on record: auto-modification of PARP14 by biotin-NAD, 50 nM PARP14, 3 μM biotin-NAD. The method, then:
An N-terminal His-TEV fusion tag was used to purify the protein from cell lysates. The His-TEV tag was left on the protein for use in the enzymatic assay.
Enzymatic inhibition of PARP14 was measured using a dissociation-enhanced lanthanide fluorescence immunoassay (DELFIA) monitoring the auto-modification of PARP14 by biotinylated nicotinamide adenine dinucleotide (biotin-NAD). 1 μL of a dose response curve of each test compound was spotted in 384-well nickel-coated white microplates (Thermo) using a Mosquito (TTP Labtech). Reactions were performed in a 50 μL volume by adding 40 μL of PARP14 in assay buffer (20 mM HEPES pH==8, 100 mM NaCl, 0.1% bovine serum albumin, 2 mM DTT and 0.002%0 Tween20), incubating with test compound at 25° C. for 30 min, then adding 10 μL of biotin-NAD (Biolog). The final concentrations of PARP14 and biotin-NAD are 50 nM and 3 μM, respectively. Reactions proceeded at 25° C. for 3 h, then were quenched with 5 μL of 10 mM unmodified nicotinamide adenine dinucleotide (Sigma-Aldrich). The quenched reactions were washed 3 times with 100 μL of TBST wash buffer (50 mM Tris-HCl, 150 mM NaCl and 0.1% Tween20). Next, to the washed and dried plate was added 25 μL of DELFIA Europium-N1 streptavidin (Perkin Elmer) diluted in DELFIA assay buffer (Perkin Elmer). After a 30 min incubation at 25° C., the plate was washed 5 times with TBST wash buffer. Finally, 25 μL of DELFIA enhancement solution was added. After a 5 min incubation the plate was read on an Envision platereader equipped with a LANCE/DELFIA top mirror (Perkin Elmer) using excitation of 340 nm and emission of 615 nm to measure the amount of Europium present in each well, informing on the amount of biotin-NAD that was transferred in the automodification reaction.
[formula] where ex615cmpd is the emission from the compound treated well, ex615min is the emission from the rucaparib treated positive control well and ex615max is the emission from the DMSO treated negative control well.
The % inhibition values were plotted as a function of compound concentration and the following 4-parameter fit was applied to derive the IC50 values:
[formula] where top and bottom are normally allowed to float, but may be fixed at 100 or 0 respectively in a 3-parameter fit. The Hill Coefficient is normally allowed to float but may also be fixed at 1 in a 3-parameter fit. Y is the % inhibition and X is the compound concentration.
For `Cc1cccc2c(=O)[nH]c(CS[C@H]3C[C@H](OCc4ccccc4)C3)nc12` [Example 38, 2-((((trans)-3-(Benzyloxy)cyclobutyl)thio)methyl)-8-methylquinazolin-4(3H)-one], the IC50 is over 10000 nM.
Next, `O=c1[nH]c(CSC2CCOCC2)nc2cc(NCCN3CCOCC3)cc(F)c12` [Example 287, 5-Fluoro-7-((2-morpholinoethyl)amino)-2-(((tetrahydro-2H-pyran-4-yl)thio)methyl)quinazolin-4(3H)-one]: under 1000 nM; `O=c1[nH]c(CS[C@H]2CC[C@H](O)CC2)nc2cc(NCC3CC3)cc(F)c12` [Example 271, 7-((Cyclopropylmethyl)amino)-5-fluoro-2-(((trans-4-hydroxycyclohexyl)thio)methyl)quinazolin-4(3H)-one]: under 1000 nM.
As for `Cc1c(Nc2ccccc2)ccc2c(=O)[nH]c(CSC3CCOCC3)nc12` [Example 95, 8-Methyl-7-(phenylamino)-2-(((tetrahydro-2H-pyran-4-yl)thio)methyl) quinazolin-4(3H)-one], the figure is 1000 to 10000 nM; as for `O=c1[nH]c(CSC2CCOCC2)nc2c(Cc3ccccc3)cccc12` [Example 10], over 10000 nM.
For `CC(=O)NC1(C)CCC(SCc2nc3cc(OCC4CC4)cc(F)c3c(=O)[nH]2)CC1` (stereo not shown) [Example 380], the IC50 is under 1000 nM.
As for `O=c1[nH]c(CSC2CCOCC2)nc2cc(NC3CCCN(Cc4ccccc4)C3)ccc12` (stereo not shown) [Example 126, 7-[(1-Benzyl-3-piperidyl)amino]-2-(tetrahydropyran-4-ylsulfanylmethyl)-3H-quinazolin-4-one], the figure is 1000 to 10000 nM; as for `Cc1cccc2c(=O)[nH]c(CSC3CCN(Cc4cnc5ccccn45)CC3)nc12` [Example 152, 2-(((1-(Imidazo[1,2-a]pyridin-3-ylmethyl)piperidin-4-yl)thio)methyl)-8-methylquinazolin-4(3H)-one trifluoroacetate], under 1000 nM; as for `CC(F)(F)CN1CCC(COc2cc(F)c3c(=O)[nH]c(CSC4CCOCC4)nc3c2)CC1` [Example 299, 7-((1-(2,2-Difluoropropyl)piperidin-4-yl)methoxy)-5-fluoro-2-(((tetrahydro-2H-pyran-4-yl)thio)methyl)quinazolin-4(3H)-one], under 1000 nM.
As for `NC[C@]1(F)CC[C@@H](SCc2nc3cc(OCC4CCC4)cc(F)c3c(=O)[nH]2)CC1` [Example 336], the figure is 1000 to 10000 nM.
Next, `O=c1[nH]c(CSC2CCN(CC(F)F)CC2)nc2cc(NC3CCCC3)ccc12` [Example 258, 7-(Cyclopentylamino)-2-(((1-(2,2-difluoroethyl)piperidin-4-yl)thio)methyl)quinazolin-4(3H)-one]: under 1000 nM.
With `Cc1cccc2c(=O)[nH]c(CS[C@@H]3CCC[C@H](CN(C)C)C3)nc12` (relative stereo) [Example 72, 2-((((cis)-3-((Dimethylamino)methyl)cyclohexyl)thio)methyl)-8-methyl quinazolin-4(3H)-one Trifluoroacetate], the IC50 is over 10000 nM.
As for `Cc1cccc2c(=O)[nH]c(CSC3CCN(Cc4ccc5cnn(C)c5c4)CC3)nc12` [Example 148, 8-Methyl-2-(((1-((1-methyl-1H-indazol-6-yl)methyl)piperidin-4-yl)thio)methyl)quinazolin-4(3H)-one trifluoroacetate], the figure is under 1000 nM.
Next, `O=c1[nH]c(CSC2CCOCC2)nc2c(Cl)cccc12` [Example 5]: 1000 to 10000 nM; `COc1cc(NC2CCCC2)cc2nc(CSC3CCOCC3)[nH]c(=O)c12` [Example 207, 7-(Cyclopentylamino)-5-methoxy-2-(((tetrahydro-2H-pyran-4-yl)thio)methyl)quinazolin-4(3H)-one]: over 10000 nM.
As for `CC(=O)N1CCC(Nc2ccc3c(=O)[nH]c(CSC4CCOCC4)nc3c2)C1` (stereo not shown) [Example 134, 7-((1-Acetylpyrrolidin-3-yl)amino)-2-(((tetrahydro-2H-pyran-4-yl)thio)methyl)quinazolin-4(3H)-one], the figure is 1000 to 10000 nM.
Consider `Cc1cccc2c(=O)[nH]c(CS[C@H]3CC[C@@H](C(N)=O)CC3)nc12` [Example 204, cis-4-(((8-Methyl-4-oxo-3,4-dihydroquinazolin-2-yl)methyl)thio)cyclohexane-1-carboxamide], for which the IC50 was 1000 to 10000 nM.
In turn, `CC(=O)N[C@H]1CC[C@H](SCc2nc3cc(OCC4CCOC4)cc(F)c3c(=O)[nH]2)CC1` (stereo partly shown) [Example 391] returned an IC50 of under 1000 nM.
Next, `CC(=O)N[C@H]1C[C@H](SCc2nc3cc(OCC4CCOCC4)cc(F)c3c(=O)[nH]2)C1` [Example 393]: under 1000 nM; `CC(=O)N1CCC(COc2cc(F)c3c(=O)[nH]c(CSC4CCOCC4)nc3c2)C1` (stereo not shown) [Example 367]: under 1000 nM.
`O=c1[nH]c(CS[C@H]2CC[C@@H](CO)CC2)nc2cc(Nc3ccccc3)ccc12` [Example 105, 2-(((cis-4-(Hydroxymethyl)cyclohexyl)thio)methyl)-7-(phenylamino) quinazolin-4(3H)-one] yielded a concentration for half-maximal inhibition (IC50) of under 1000 nM.
Turning to `O=c1[nH]c(CSC2CCNCC2)nc2cc(NC3CCCC3)cc(F)c12` [Example 176, 7-(Cyclopentylamino)-5-fluoro-2-((piperidin-4-ylthio)methyl)quinazolin-4(3H)-one Hydrochloride], the IC50 is under 1000 nM.
As for `O=c1[nH]c(CS[C@H]2CNC[C@H]2F)nc2cc(NC3CCCC3)cc(F)c12` (relative stereo) [Example 223, 7-(Cyclopentylamino)-5-fluoro-2-(((cis-4-fluoropyrrolidin-3-yl)thio)methyl)quinazolin-4(3H)-one Trifluoroacetate], the figure is under 1000 nM.
As for `Cc1cccc2c(=O)[nH]c(CSC3CCN(C)CC3)nc12` [Example 14, 8-Methyl-2-(((1-methylpiperidin-4-yl)thio)methyl)quinazolin-4(3H)-one], the figure is 1000 to 10000 nM.
Next, `O=c1[nH]c(CSC2CCOCC2)nc2cc(NC3CCCCC3)c(F)cc12` [Example 290, 7-(Cyclohexylamino)-6-fluoro-2-(((tetrahydro-2H-pyran-4-yl)thio)methyl)quinazolin-4(3H)-one]: under 1000 nM; `Cc1cc(OCC2CCC2)cc2nc(CSC3CCOCC3)[nH]c(=O)c12` [Example 237, 7-(Cyclobutylmethoxy)-5-methyl-2-(((tetrahydro-2H-pyran-4-yl)thio)methyl)quinazolin-4(3H)-one]: under 1000 nM.
On to `CN(C)c1ccc2c(=O)[nH]c(CSC3CCOCC3)nc2c1` [Example 109, 7-(Dimethylamino)-2-(((tetrahydro-2H-pyran-4-yl)thio)methyl)quinazolin-4(3H)-one], for which the 50% inhibitory concentration (IC50) lay within 1000 to 10000 nM.
Next, `O=c1[nH]c(CSC2CCOCC2)nc2cc(N[C@H]3CC[C@@H](N4CCOCC4)CC3)cc(F)c12` [Example 234, 5-Fluoro-7-((cis-4-morpholinocyclohexyl)amino)-2-(((tetrahydro-2H-pyran-4-yl)thio)methyl)quinazolin-4(3H)-one Trifluoroacetate]: 1000 to 10000 nM.
Next, `CN1CCN(c2ccc3c(=O)[nH]c(CSC4CCOCC4)nc3c2)CC1` [Example 112, 7-(4-Methylpiperazin-1-yl)-2-(((tetrahydro-2H-pyran-4-yl)thio)methyl)quinazolin-4(3H)-one]: 1000 to 10000 nM; `O=c1[nH]c(CSC2CCOCC2)nc2cc(NCCC3CCCC3)ccc12` [Example 252, 7-((2-Cyclopentylethyl)amino)-2-(((tetrahydro-2H-pyran-4-yl)thio)methyl)quinazolin-4(3H)-one]: under 1000 nM; `Cc1cc(NCC2CC2(F)F)cc2nc(CSC3CCNCC3)[nH]c(=O)c12` (stereo not shown) [Example 284, 7-(((2,2-Difluorocyclopropyl)methyl)amino)-5-methyl-2-((piperidin-4-ylthio)methyl)quinazolin-4(3H)-one hydrochloride]: under 1000 nM.
`O=c1[nH]c(CSC2CCOCC2)nc2cc(OC[C@H]3CNC[C@H]3F)cc(F)c12` (relative stereo) [Example 371] displayed an IC50 of under 1000 nM.
Next, `CC(=O)N1CC[C@@H](Nc2cc3nc(CS[C@H]4CC[C@H](O)CC4)[nH]c(=O)c3c(F)c2F)C1` [Example 349]: under 1000 nM.
Next, `Cc1cccc2c(=O)[nH]c(CS[C@H]3C[C@H](O)C3)nc12` [Example 47, 2-(((trans-3-Hydroxycyclobutyl)thio)methyl)-8-methylquinazolin-4(3H)-one]: 1000 to 10000 nM.

The IC50 is the point on the concentration scale where inhibition reaches its midpoint. A high value points to weaker potency.
